Legend:
aldose reductase [1] = target: T1, aldose reductase (Bos taurus, UniProt P16116); test: in vitro inhibition of partially purified aldose reductase from bovine lenses (reduction of glucose to sorbitol, spectrophotometric); assay type: biochemical; settings: read-out: IC50 (concentration necessary to inhibit to the extent of 50% the enzyme's ability to reduce glucose to sorbitol)
T1 construct: partially purified aldose reductase is isolated in known manner from bovine lenses; from tissue; host or cells: bovine lens
Method: Thus, partially purified aldose reductase is isolated in known manner from bovine lenses. The percentage inhibition of this enzyme's ability in vitro to reduce aldoses to polyhydric alcohols, and particularly to reduce glucose to sorbitol, caused by a test compound is then determined using standard spectrophotometric methods.
(§1) In the above in vivo test, an effective dose (ED) may be defined as the oral dose at which the residual sorbitol level in the sciatic nerve is reduced to a level similar to that in the sciatic nerve of normal, undosed rats. In this test the novel compound of formula I has an ED of approximately 1.76 mg/kg. as the racemic form and of approximately 0.62 mg/kg. as the dextrorotatory, optically active form.

aldose reductase [2] = test: in vivo aldose reductase inhibition in streptozotocin-diabetic rats (residual sorbitol in sciatic nerve); design: species or system rat; settings: dosed daily for 2-5 days, 2-4 hours after final dose
Method: Thus, rats are made diabetic (as evidenced by severe glucosuria being present) by dosing with streptozotocin. The animals are then dosed daily with the test compound for 2-5 days. The animals are then killed 2-4 hours after the final dose and the eye lenses and/or sciatic nerves are removed. After a standard work-up procedure the residual sorbitol levels in each tissue are determined by gas liquid chromatography after conversion to the polytrimethysilyl derivatives. Inhibition of aldose reductase in vivo is then assessed by comparing the residual sorbitol levels in tissues from the dosed diabetic group of rats with those of an undosed group of diabetic rats and an undosed, normal group of rats.
as §1

| IC50 (aldose reductase [1]) | Structure (SMILES) | effective dose (ED): oral dose at which the residual sorbitol level in the sciatic nerve is reduced to a level similar to that of normal, undosed rats (aldose reductase [2]) |
| --- | --- | --- |
| ~24 nM | O=C1NC(=O)C2(N1)C(=O)N(Cc1ccc(Br)cc1F)c1c(Cl)cccc12 (racemic) [compound of formula I, racemic form, (±)-1'-(4-bromo-2-fluorobenzyl)-7'-chloro-spiro[imidazolidine-4,3'-indoline]-2,2',5-trione] | approximately 1.76 mg/kg |
| ~9.8 nM | O=C1NC(=O)C2(N1)C(=O)N(Cc1ccc(Br)cc1F)c1c(Cl)cccc12 (single isomer, unassigned; (+)) [(+)-1'-(4-bromo-2-fluorobenzyl)-7'-chloro-spiro[imidazolidine-4,3'-indoline]-2,2',5-trione] | approximately 0.62 mg/kg |
